Measured values published in ChEMBL document CHEMBL5291721, “A preclinical secondary pharmacology resource illuminates target-adverse drug reaction associations of marketed drugs” (Nat Commun, 2023).

Experiments:
[1] = molecular target: T1, Alpha-2B adrenergic receptor (Homo sapiens, UniProt P18089)
T1 sequence (P18089 whole entry): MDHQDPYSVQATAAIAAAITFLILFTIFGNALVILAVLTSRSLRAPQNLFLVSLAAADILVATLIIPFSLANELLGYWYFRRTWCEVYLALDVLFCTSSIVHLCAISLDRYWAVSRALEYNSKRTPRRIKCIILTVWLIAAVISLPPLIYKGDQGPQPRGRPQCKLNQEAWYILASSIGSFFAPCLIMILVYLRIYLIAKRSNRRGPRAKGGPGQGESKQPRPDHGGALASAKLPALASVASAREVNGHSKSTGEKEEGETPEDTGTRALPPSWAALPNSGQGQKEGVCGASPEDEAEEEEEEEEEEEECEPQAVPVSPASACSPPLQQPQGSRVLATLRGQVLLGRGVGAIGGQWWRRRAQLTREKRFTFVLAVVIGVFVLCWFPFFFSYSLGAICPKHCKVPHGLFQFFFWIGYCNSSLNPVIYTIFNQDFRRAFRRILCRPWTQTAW

Cannabinoid receptor 1 = Cannabinoid receptor 1 (Homo sapiens, UniProt P21554)
Cannabinoid receptor 1, sequence (P21554 whole entry): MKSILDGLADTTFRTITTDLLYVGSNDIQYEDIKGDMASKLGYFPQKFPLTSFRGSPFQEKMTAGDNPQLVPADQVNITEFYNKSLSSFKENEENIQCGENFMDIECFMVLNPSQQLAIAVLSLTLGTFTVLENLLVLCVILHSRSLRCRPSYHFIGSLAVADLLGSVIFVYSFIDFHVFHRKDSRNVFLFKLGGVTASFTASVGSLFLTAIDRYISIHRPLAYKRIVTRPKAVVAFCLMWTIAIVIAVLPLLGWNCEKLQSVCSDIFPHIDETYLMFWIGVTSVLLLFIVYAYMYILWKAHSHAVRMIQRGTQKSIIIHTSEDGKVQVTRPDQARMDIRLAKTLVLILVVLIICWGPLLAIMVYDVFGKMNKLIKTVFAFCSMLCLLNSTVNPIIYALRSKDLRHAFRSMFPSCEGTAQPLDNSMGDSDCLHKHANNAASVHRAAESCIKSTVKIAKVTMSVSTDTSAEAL

Histamine H1 receptor = Histamine H1 receptor (Homo sapiens, UniProt P35367)
Histamine H1 receptor, sequence (P35367 whole entry): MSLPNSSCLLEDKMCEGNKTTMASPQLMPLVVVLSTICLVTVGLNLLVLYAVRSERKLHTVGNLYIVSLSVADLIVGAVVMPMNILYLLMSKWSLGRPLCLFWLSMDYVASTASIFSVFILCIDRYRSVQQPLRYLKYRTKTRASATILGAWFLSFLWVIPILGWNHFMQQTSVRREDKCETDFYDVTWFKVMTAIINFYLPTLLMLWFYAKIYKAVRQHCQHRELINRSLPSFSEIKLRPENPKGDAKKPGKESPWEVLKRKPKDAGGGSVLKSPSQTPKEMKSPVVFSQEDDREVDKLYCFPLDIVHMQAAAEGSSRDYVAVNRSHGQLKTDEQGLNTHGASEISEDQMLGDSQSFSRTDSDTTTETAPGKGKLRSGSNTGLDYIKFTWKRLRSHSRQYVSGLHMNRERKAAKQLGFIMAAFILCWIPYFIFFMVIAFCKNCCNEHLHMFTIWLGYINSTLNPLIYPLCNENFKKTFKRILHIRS

[2] = molecular target: T2, Muscarinic acetylcholine receptor M2 (Homo sapiens, UniProt P08172); type: functional, cell-based
T2 sequence (P08172 whole entry): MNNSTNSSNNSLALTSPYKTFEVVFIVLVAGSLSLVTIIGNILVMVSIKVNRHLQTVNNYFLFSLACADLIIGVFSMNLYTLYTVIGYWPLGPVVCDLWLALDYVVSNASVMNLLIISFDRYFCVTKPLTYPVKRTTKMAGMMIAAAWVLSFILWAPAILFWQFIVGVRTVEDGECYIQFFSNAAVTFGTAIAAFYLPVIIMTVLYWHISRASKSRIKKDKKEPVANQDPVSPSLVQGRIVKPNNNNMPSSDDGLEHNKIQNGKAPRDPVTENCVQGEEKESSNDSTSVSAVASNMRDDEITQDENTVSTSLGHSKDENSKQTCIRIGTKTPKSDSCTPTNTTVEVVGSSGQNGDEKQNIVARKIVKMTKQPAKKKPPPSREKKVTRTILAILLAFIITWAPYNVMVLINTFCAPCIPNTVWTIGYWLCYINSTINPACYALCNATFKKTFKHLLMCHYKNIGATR

[3] = molecular target: T2, Muscarinic acetylcholine receptor M2; type: functional, cell-based; remark: listed apart in the source
Progesterone receptor = molecular target: T3, Progesterone receptor (Homo sapiens, UniProt P06401); type: functional
T3 sequence (P06401 whole entry): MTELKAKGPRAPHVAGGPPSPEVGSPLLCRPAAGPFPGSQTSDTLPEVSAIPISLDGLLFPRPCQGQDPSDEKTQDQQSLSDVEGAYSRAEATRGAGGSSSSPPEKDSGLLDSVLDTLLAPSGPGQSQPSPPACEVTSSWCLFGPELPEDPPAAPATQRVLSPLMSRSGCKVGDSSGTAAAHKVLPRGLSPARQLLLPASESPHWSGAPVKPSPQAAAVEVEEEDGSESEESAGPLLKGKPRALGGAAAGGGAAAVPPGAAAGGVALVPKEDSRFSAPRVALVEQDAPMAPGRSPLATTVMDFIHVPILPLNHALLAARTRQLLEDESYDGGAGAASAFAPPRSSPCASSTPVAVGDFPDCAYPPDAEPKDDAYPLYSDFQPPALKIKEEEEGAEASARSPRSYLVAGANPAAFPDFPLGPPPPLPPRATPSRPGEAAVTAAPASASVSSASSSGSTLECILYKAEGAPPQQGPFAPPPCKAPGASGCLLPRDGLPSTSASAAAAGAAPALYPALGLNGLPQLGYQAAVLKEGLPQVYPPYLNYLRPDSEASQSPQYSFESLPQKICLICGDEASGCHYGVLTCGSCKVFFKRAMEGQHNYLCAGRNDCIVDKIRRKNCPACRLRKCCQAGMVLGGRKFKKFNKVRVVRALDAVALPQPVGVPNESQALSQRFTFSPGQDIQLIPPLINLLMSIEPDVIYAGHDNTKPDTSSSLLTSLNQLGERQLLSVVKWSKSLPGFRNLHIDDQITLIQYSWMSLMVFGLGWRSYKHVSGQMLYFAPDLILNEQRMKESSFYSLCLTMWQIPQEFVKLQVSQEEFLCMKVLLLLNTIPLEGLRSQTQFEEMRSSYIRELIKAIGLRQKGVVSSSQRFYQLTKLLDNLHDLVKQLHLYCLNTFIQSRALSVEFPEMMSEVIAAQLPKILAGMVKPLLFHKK

Mu-type opioid receptor = Mu-type opioid receptor (Homo sapiens, UniProt P35372); experiment: biochemical; type: functional
Mu-type opioid receptor, sequence (P35372 whole entry): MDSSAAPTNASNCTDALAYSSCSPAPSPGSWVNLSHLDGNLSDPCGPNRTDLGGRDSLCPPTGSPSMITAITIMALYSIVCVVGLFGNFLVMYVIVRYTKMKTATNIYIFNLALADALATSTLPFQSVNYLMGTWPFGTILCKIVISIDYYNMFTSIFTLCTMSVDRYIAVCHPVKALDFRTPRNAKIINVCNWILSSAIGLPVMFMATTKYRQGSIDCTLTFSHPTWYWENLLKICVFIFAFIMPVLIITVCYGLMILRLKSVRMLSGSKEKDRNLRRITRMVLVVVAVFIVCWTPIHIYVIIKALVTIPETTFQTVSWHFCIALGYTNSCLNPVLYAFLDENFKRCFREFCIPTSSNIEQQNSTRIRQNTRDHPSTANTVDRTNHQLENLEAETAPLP

[4] = molecular target: T4, Alpha-1A adrenergic receptor (Homo sapiens, UniProt P35348); type: functional, cell-based
T4 sequence (P35348 whole entry): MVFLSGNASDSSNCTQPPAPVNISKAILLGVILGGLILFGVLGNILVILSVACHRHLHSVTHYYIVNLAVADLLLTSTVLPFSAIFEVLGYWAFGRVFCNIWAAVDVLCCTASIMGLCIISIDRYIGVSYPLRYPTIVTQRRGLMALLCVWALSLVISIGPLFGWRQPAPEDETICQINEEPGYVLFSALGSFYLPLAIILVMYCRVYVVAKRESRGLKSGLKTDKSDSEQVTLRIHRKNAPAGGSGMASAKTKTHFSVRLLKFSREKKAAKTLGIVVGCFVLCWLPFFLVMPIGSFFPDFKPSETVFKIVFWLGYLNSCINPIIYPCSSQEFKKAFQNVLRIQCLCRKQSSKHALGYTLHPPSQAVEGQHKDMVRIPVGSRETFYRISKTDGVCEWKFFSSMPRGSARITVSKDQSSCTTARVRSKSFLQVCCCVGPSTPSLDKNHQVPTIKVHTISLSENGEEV

[5] = molecular target: 5-hydroxytryptamine receptor 2A (Homo sapiens, UniProt P28223); type: functional, cell-based
5-hydroxytryptamine receptor 2A, sequence (P28223 whole entry): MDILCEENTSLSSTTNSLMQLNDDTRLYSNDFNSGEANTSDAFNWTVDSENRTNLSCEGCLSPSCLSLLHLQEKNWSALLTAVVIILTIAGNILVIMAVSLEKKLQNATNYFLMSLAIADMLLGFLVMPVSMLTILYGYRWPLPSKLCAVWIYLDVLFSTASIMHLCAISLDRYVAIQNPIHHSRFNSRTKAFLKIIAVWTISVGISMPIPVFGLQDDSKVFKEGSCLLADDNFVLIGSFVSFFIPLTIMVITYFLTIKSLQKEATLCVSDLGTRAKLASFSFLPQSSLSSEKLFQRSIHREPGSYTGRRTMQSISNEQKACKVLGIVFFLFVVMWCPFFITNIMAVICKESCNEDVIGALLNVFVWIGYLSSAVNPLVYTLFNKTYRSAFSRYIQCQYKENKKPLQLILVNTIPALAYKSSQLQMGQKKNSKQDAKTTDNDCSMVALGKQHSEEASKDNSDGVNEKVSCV
Further: assay procedure not described here.

Row | SMILES | AC50 [1] | AC50 (Cannabinoid receptor 1) | AC50 (Histamine H1 receptor) | AC50 [2] | AC50 [3] | AC50 (Progesterone receptor) | AC50 (Mu-type opioid receptor) | AC50 [4] | AC50 [5]
1 | C[C@]1(COc2ccc(N3CCC(Oc4ccc(OC(F)(F)F)cc4)CC3)cc2)Cn2cc([N+](=O)[O-])nc2O1 | > 10 µM | > 10 µM | > 10 µM |  |  |  |  |  | 
2 | C[C@]12CC[C@H](O)CC1=CC[C@@H]1[C@@H]2CC[C@]2(C)C(c3cccnc3)=CC[C@@H]12 [ABIRATERONE] | > 10 µM | > 10 µM | > 10 µM | > 10 µM | > 10 µM |  |  |  | 
3 | O=C(Nc1nc(-c2cc(Cl)cs2)c(N2CCN(C3CCCCC3)CC2)s1)c1cnc(N2CCC(C(=O)O)CC2)c(Cl)c1 [AVATROMBOPAG] | > 10 µM | > 10 µM | > 10 µM |  |  |  |  |  | 
4 | CN(C)C(=O)Oc1cc(OC(=O)N(C)C)cc(C(O)CNC(C)(C)C)c1 (centres undefined) [BAMBUTEROL] |  |  |  |  |  | > 30 µM |  |  | 
5 | C[C@H]1C[C@H]2[C@@H]3CCC4=CC(=O)C=C[C@]4(C)[C@@]3(Cl)[C@@H](O)C[C@]2(C)[C@@]1(O)C(=O)CO [BECLOMETHASONE] |  | > 10 µM |  |  |  |  |  |  | 
6 | CO[C@@]1(NC(=O)CSCC#N)C(=O)N2C(C(=O)O)=C(CSc3nnnn3C)CS[C@@H]21 [CEFMETAZOLE] |  |  |  | > 30 µM | > 30 µM |  | > 30 µM | > 30 µM | 
7 | CO/N=C(\C(=O)N[C@@H]1C(=O)N2C(C(=O)[O-])=C(C[n+]3cccc4c3CCC4)CS[C@H]12)c1csc(N)n1 [CEFPIROME] | > 30 µM |  | > 30 µM | > 30 µM | > 30 µM |  | > 30 µM | > 30 µM | > 30 µM
8 | NS(=O)(=O)c1cc(C2(O)NC(=O)c3ccccc32)ccc1Cl (centres undefined) [CHLORTHALIDONE] |  | > 10 µM |  | > 10 µM | > 10 µM | > 10 µM | > 30 µM |  | 
9 | CC[C@H]1OC(=O)[C@H](C)[C@@H](O[C@H]2C[C@@](C)(OC)[C@@H](O)[C@H](C)O2)[C@H](C)[C@@H](O[C@@H]2O[C@H](C)C[C@H](N(C)C)[C@H]2O)[C@](C)(OC)C[C@@H](C)C(=O)[C@H](C)[C@@H](O)[C@]1(C)O [CLARITHROMYCIN] |  |  |  | > 30 µM | > 30 µM | > 30 µM | > 30 µM | > 30 µM | 
10 | Oc1c(I)cc(Cl)c2cccnc12 [CLIOQUINOL] | > 30 µM |  | > 30 µM |  |  |  | > 30 µM | > 30 µM | > 30 µM
11 | C[C@@H]1CCC[C@H](C)N1NC(=O)c1ccc(Cl)c(S(N)(=O)=O)c1 [CLOPAMIDE] | > 30 µM |  | > 30 µM | > 30 µM | > 30 µM | > 30 µM | > 30 µM | > 30 µM | > 30 µM
12 | COc1ccc2c(c1)[C@]13CCCC[C@@H]1[C@H](C2)N(C)CC3 [DEXTROMETHORPHAN] |  | > 10 µM |  | > 10 µM | > 10 µM |  | > 30 µM |  | 
13 | O=c1oc2ccccc2c(O)c1Cc1c(O)c2ccccc2oc1=O [DICUMAROL] |  | > 10 µM |  | > 10 µM | > 10 µM | > 10 µM | > 30 µM |  | 
14 | CCn1cc(C(=O)O)c(=O)c2cc(F)c(N3CCNCC3)nc21 [ENOXACIN] |  | > 10 µM |  | > 10 µM | > 10 µM |  |  |  | 
15 | O=C(O)CSCC(=O)NC1CCSC1=O (centres undefined) [ERDOSTEINE] | > 30 µM |  | > 30 µM | > 30 µM | > 30 µM | > 30 µM | > 30 µM | > 30 µM | > 30 µM
16 | COc1cccc(N(C)C(=S)Oc2ccc3c(c2)CCCC3)n1 [LIRANAFTATE] | > 30 µM |  | > 30 µM | > 30 µM | > 30 µM | > 30 µM | > 30 µM | > 30 µM | 7.4 µM
17 | C#C[C@]1(O)CC[C@H]2[C@@H]3CCc4cc(OC)ccc4[C@H]3CC[C@@]21C [MESTRANOL] |  | > 10 µM |  | > 10 µM | > 10 µM | 0.096 µM | > 30 µM |  | 
18 | N=C(N)c1ccc2cc(OC(=O)c3ccc(N=C(N)N)cc3)ccc2c1 [NAFAMOSTAT] | 12 µM |  | > 30 µM | > 30 µM | 12 µM | > 30 µM | > 30 µM | 15 µM | > 30 µM
19 | c1ccc2c(CC3=NCCN3)cccc2c1 [NAPHAZOLINE] | 0.19 µM |  |  |  |  |  |  |  | 
20 | CNC(=O)Oc1ccc2c(c1)[C@]1(C)CCN(C)[C@@H]1N2C [PHYSOSTIGMINE] |  |  |  | > 30 µM | > 30 µM | > 30 µM | > 30 µM | > 30 µM | 
21 | O=C(O)c1cc(O)c2c3nc4ccccc4oc-3cc(=O)c2n1 [PIRENOXINE] | 3.8 µM |  | 11 µM | > 30 µM | > 30 µM | > 30 µM | > 30 µM | > 30 µM | > 30 µM
22 | NS(=O)(=O)c1cc(C(=O)O)cc(N2CCCC2)c1Oc1ccccc1 [PIRETANIDE] | > 30 µM |  | > 30 µM | > 30 µM | > 30 µM | > 30 µM | > 30 µM |  | > 30 µM
23 | CNCCCC1c2ccccc2C=Cc2ccccc21 [PROTRIPTYLINE] |  | > 10 µM |  | > 10 µM | 1.8 µM | > 10 µM |  |  | 
24 | COCCCOc1ccnc(C[S+]([O-])c2nc3ccccc3[nH]2)c1C (centres undefined) [RABEPRAZOLE] |  | > 10 µM |  | > 10 µM | > 10 µM |  |  |  | 
25 | CC(C)=CCOc1ccc(/C=C/C(=O)c2ccc(OCC=C(C)C)cc2OCC(=O)O)cc1 [SOFALCONE] | > 30 µM |  | > 30 µM | > 30 µM | > 30 µM | > 30 µM | > 30 µM | 25 µM | > 30 µM
26 | O=C(CCCN1CCC2(CC1)C(=O)NCN2c1ccccc1)c1ccc(F)cc1 [SPIPERONE] | 2.25 µM |  | 1.4 µM |  |  | > 30 µM |  | 1.6 µM | 
27 | CCSc1ccc2c(c1)N(CCCN1CCN(C)CC1)c1ccccc1S2 [THIETHYLPERAZINE] |  |  | 0.17 µM | > 30 µM | > 10 µM | > 30 µM |  | 1.6 µM | 1.6 µM
